The values below come from patent US8586768B2, “Design, synthesis and functional characterization of rottlerin analogs” (priority 2009, dated 2013).

The test system of one series is N27 cells. To be noted: for blockage of MPP+-induced cytotoxicity: co-treated with 0.3, 1 and 3 μM; for toxicity of the analog at higher doses: 30 μM; for neuroprotection compared with rottlerin: caspase-3 activity and cytotoxic cell death. As for the experimental part: (§1) At the end of the treatment, cytotoxicity was measured using the Sytox cell death assay in a 96-well fluorescence microplate reader.
A second generation of rottlerin analogs was further utilized for neuroprotection studies, as shown as PK201-203 in FIG. 2.
as §1
The analogs were tested in an N27 dopaminergic cell model for their neuroprotective properties. […] At the end of the treatment, cytotoxicity was measured using the Sytox cell death assay in a 96-well fluorescence microplate reader.
(§2) Rat mesencephalic dopaminergic clonal cells (N27) were used and maintained in RPMI 1640 complete medium supplemented with 10% Fetal Bovine Serum, 1% […] and 1% Penicillin/Streptomycin in a 37° C. incubator with 5% CO2. After 4-6 days in culture, the cells were used for the experiments.
(§3) N27 cells were exposed to MPP^+ for 24 hr in the presence or absence of PK analogs in the dose range of 1-30 μM.

Series [1] deals with caspase-3 activity in N27 cells. Briefly: MPP+-induced caspase-3 activity assay in N27 cells. The format is cell-based, rat. The settings on record: for blockage of MPP+-induced caspase-3 activity: co-treated with 0.3, 1, 3 and 10 μM; for inhibition of MPP+-induced caspase-3 activity: MPP+ 24 hr, dose range 1-30 μM. As for the experimental part:
To determine whether PK analogs are neuroprotective against MPP+-induced increases in caspase-3 and DNA fragmentation, their effects on MPP+-induced increases in caspase-3 activity and DNA fragmentation, markers of apoptotic cell death, were examined.
The second generation PK analogs were further tested to determine whether the analogs are neuroprotective against MPP+-induced apoptotic cell death. The effects on MPP+-induced increases in caspase-3 enzymatic activity were analyzed, a marker of apoptotic cell death. […] At the end of the treatment, cytotoxicity was measured using the caspase-3 assay in a 96-well fluorescence microplate reader.
The third generation PK analogs were further tested to determine whether the analogs are neuroprotective against MPP+-induced apoptotic cell death. The effects on MPP+-induced increases in caspase-3 enzymatic activity were examined, a marker of apoptotic cell death. N27 cells were exposed to 300 μM MPP+ for 24 hr in the presence or absence of three different PK compounds in the dose range of 0.3-10 μM. At the end of the treatment, cytotoxicity was measured using the caspase-3 assay in a 96-well fluorescence microplate reader.
as §2, §3

Series [2] is described as follows: Activity of simple rottlerin analogs compared with rottlerin (test not named). As for the experimental part:
Design and Synthesis of Novel Rottlerin Analogs. Since Rottlerin has proven to be a difficult target to make synthetically, analogs have been developed and tested in an attempt to localize the region of activity and improve that activity. Initially, simple analogs of Rottlerin itself, obtained from CalBioChem (La Jolla, Calif., Cat #557370), were prepared and analyzed. Two compounds gave important results, one representing a simplified methylene linkage present in the parent compound (PK103), and the other (PK203) came from a simple bromination of natural Rottlerin.

The next series deals with PKCδ (Homo sapiens, UniProt Q05655). Briefly: In vitro 32P phosphorylation kinase assay with histone substrate. Type of series: biochemical. To be noted: 0.3-10 μM, pure recombinant PKCδ protein. The method, then: Since PK analogs are directed against PKCδ, it was first determined whether the analogs would inhibit PKCδ enzyme activity in kinase assays. The ability of lead PK analogs to inhibit purified human recombinant PKCδ enzyme activity by 32P phosphorylation kinase assay with histone as the substrate was measured. The in vitro kinase assays were performed with human recombinant PKCδ in the presence or absence of 0.3-10 μM lead PK analogs in the presence histone substrate, [^32P]-ATP and phospholipids. The extent of histone phosphorylation was determined after separation in SDS-PAGE and by phosphoimaging. IC50 was obtained using sigmoidal dose-response curve and non-linear regressional analysis using Graphpad Prism software.
In vitro kinase assays were performed with human recombinant PKCδ in the presence or absence of 0.3-10 μM lead PK analogs in the presence histone substrate, [^32P]-ATP and phospholipids. The extent of histone phosphorylation was determined after separation in SDS-PAGE and by phosphoimaging.

Sequence of PKCδ (Q05655 whole entry): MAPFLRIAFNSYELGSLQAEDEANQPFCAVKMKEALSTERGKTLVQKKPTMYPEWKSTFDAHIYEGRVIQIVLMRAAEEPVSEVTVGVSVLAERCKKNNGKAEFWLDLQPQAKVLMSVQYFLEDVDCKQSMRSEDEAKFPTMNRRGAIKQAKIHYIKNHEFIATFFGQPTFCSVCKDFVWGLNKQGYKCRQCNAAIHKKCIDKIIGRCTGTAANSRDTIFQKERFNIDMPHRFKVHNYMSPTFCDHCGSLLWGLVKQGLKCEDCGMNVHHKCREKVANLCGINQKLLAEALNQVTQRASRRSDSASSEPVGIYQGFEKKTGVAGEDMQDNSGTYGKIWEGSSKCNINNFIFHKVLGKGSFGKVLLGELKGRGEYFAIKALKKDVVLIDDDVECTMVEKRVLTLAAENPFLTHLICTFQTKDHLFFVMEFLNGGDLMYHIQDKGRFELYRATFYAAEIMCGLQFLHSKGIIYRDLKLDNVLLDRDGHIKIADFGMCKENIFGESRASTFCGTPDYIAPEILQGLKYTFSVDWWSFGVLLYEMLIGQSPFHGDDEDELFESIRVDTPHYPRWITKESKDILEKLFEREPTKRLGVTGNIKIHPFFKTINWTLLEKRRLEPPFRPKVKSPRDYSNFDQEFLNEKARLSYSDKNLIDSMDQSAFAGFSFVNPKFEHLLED

As for `CC(=O)c1c(O)c(C)c(O)c(Cc2c(O)c3c(c(C(=O)/C=C/c4ccccc4)c2O)OC(C)(C)CC3)c1O` [PK201], the “blockage of MPP+-induced cytotoxicity” value with N27 cells (300 μM MPP+ 24 hr) was “significant blockage”. Besides, the “blockage of MPP+-induced caspase-3 activity” value in series [1] (300 μM MPP+ 24 hr) is “dose-dependent blockage”.

As to `CC(=O)c1c(O)c(C)c(O)c(Cc2c(O)c(C(=O)/C=C/c3ccccc3)c3c(c2O)C(Br)C(Br)C(C)(C)O3)c1O` (stereo not drawn) [PK203], the “blockage of MPP+-induced cytotoxicity” value with N27 cells (300 μM MPP+ 24 hr) is listed as “significant blockage”. For the same compound, in series [2], the “activity compared with Rottlerin” value was “less activity than Rottlerin”. The “blockage of MPP+-induced caspase-3 activity” value in series [1] (300 μM MPP+ 24 hr) is given as “dose-dependent blockage”.

For `COc1cc(OC)c(C(=O)/C=C/c2ccccc2)c2c1C=CC(C)(C)O2` [PK111], in the series with N27 cells, the “toxicity of the analog at higher doses” value is “toxic”. The “neuroprotection compared with rottlerin” value with N27 cells (MPP+ 24 hr) is listed as “better neuroprotection than the parent compound rottlerin”. Also, in the series on N27 cells (MPP+ 24 hr, dose range 1-30 μM), the “inhibition of MPP+-induced cytotoxic cell death” value was “almost completely inhibited”. Besides, the “inhibition of PKCδ kinase activity” value on PKCδ is “inhibited”. The “inhibition of MPP+-induced caspase-3 activity” value in series [1] was “almost completely inhibited”.

`COc1cc2c(c3c1C=CC(C)(C)O3)C(=O)CC(c1ccccc1)O2` (stereo not drawn) [PK112]: in the series on N27 cells, the “toxicity of the analog at higher doses” value is listed as “toxic”. The “neuroprotection compared with rottlerin” value in the series on N27 cells (MPP+ 24 hr) is recorded as “better neuroprotection than the parent compound rottlerin”. For the same compound, the “inhibition of PKCδ kinase activity” value at PKCδ is recorded as “inhibited”. The “inhibition of MPP+-induced caspase-3 activity” value in series [1] is reported as “almost completely inhibited”.

On to `CC(=O)c1c(O)cc(O)cc1O` [PK303, acytyl phloroglucinol], for which, in the series with N27 cells (300 μM MPP+ 24 hr), the “relative potency against MPP+-induced cytotoxic cell death within the generation” value is reported as “more potent inhibitors than PK301” and the “blockage of MPP+-induced cytotoxicity” value was “significant blockage”. In addition, the “relative protection against MPP+-induced caspase-3 activity within the generation” value in series [1] (300 μM MPP+ 24 hr, 0.3-10 μM) is “more effectively protect”. In addition, in series [1] (300 μM MPP+ 24 hr), the “blockage of MPP+-induced caspase-3 activity” value is “significant blockage”.
